Source: US20120172401A1, “BENZIMIDAZOLE DERIVATIVE AND USE AS ANGIOTENSIN II ANTAGONIST” (Takeda Pharmaceutical Company Limited, priority 2005, published 2012)
Values after ≈ are worked out from the molar mass of the structure shown. Where two headings read alike, the source gives them in different places.

Columns and labels:
[1] = test system: Angiotensin II (AII)-induced vasopressor action; assay: Inhibitory effect on angiotensin II (AII)-induced vasopressor action in rat; format: in vivo; conditions: male SD rats, AII 100 ng/kg i.v., p.o., mean±SEM
Method: 11-Week-old male SD rats (JCL: SD, CLEA Japan, Inc.) were anesthetized with pentobarbital (50 mg/kg, i.p.), the femoral artery and femoral vein were isolated, and a polyethylene tube filled with physiological saline containing heparin (200 U/mL) was placed therein. The catheter was subcutaneously fixed in the back of the neck. After recovery period, the rats were subjected to the test.
The arterial catheter was connected to a pressure transducer (2238, NEC San-ei Instruments) and the signals were output on a pen recorder (RECTI-HORIZ 8K, NEC San-ei Instruments) via an amplifier for blood pressure. After the vasopressor action of AII (100 ng/kg, i.v.) was stabilized, a test compound in an equimolar dose to compound A was administered. After 24 hrs, AII was administered, an increase in the blood pressure was measured, and an inhibition rate relative to the value before drug administration was calculated. All compounds were suspended in 0.5% methylcellulose and orally administered at a volume of 2 mL/kg.
The results are shown as mean±SEM (Table 6). The significance between the compound (I) administration group and other compound administration group was determined by the Student's t test (**: p<0.01, *: p<0.05).

[2] = test system: insulin sensitivity; assay: Enhancing effect on insulin sensitivity in rat (glucose clamp technique); format: in vivo; conditions: spontaneously hypertensive rats, p.o. for 2 weeks, average glucose injection rate 50-90 min, mean±SEM
Method: 24-Week-old male spontaneously hypertensive rats (SLC: SHR/Izm, Japan SLC, Inc.) were used. The body weight, systolic blood pressure, fasting blood glucose level, plasma insulin level and plasma triglyceride level of the rats were measured, and the rats were divided into a vehicle (0.5% methylcellulose solution) administration group and compound (I) (0.12, 0.37 and 1.23 mg/kg) administration groups using them as indices. Compound (I) was suspended in 0.5% methylcellulose solution and orally administered at a volume of 2 mL/kg for 2 weeks.
The insulin sensitivity was evaluated by the glucose clamp technique. To be specific, the rats after fasting overnight were anesthetized with pentobarbital sodium (Nembutal injection, Dainippon Pharmaceutical Co. Ltd., 50 mg/kg i.p.), and catheters (SP45, Natume Seisakusho Co., Ltd.) for blood sampling, insulin (novolin R/100, Novo Nordisk Pharma Co., Ltd.) infusion and glucose (Otsuka Glucose Injection 50%, Otsuka Pharmaceutical Co., Ltd.) infusion were each placed in the right common carotid artery, left femoral vein and right femoral vein. After single intravenous injection of 25 mU/kg of insulin, high insulin state was maintained by infusion using an infusion pump (KDS100, KDS) at an injection rate of 4 mU/kg/min. In addition, glucose in an amount necessary for maintaining the normal blood glucose level was intravenously infused using a different infusion pump (KDS100, KDS). Intravenous injection of glucose was started from 10 min after the start of the injection of insulin, and the glucose injection rate was changed after blood glucose measurement performed every 5 min. The blood glucose level then was quickly measured using a simple blood glucose measurement apparatus (ACCU-CHEK Comfort, Roche diagnostics). Glucose was infused for 90 min., the average value of the glucose injection rate was calculated for 40 min (from 50 min. to 90 min. after the start of the injection) and used as an index (M value) of insulin sensitivity.
The results are shown as mean±SEM (Table 7). […]

[3] = Membrane permeability by Parallel Artificial Membrane Permeability Assay (PAMPA); format: in vitro ADME; conditions: for Papp at 3 h, 50 gmol/L: PAMPA; for permeability in comparison with compound X: in words
Method: The permeability with the artificial membrane was determined by PAMPA under the following conditions. • lipid membrane: GIT mode (pION) • measurement wavelength: 250-400 nm • incubation time: 3 hrs • incubation temperature: 25° C. • Donor: […] 50 gmol/L

[4] = Solubility in JP1, JP2 and GCDC/JP2; format: physicochemical; conditions: for solubility in comparison with compound X: in words; for solubility at 2 h: thermodynamic from solid, 37° C.
Method: About 2 mg of samples were suspended in 2 mL of JP1, JP2 and 20 mmol/L GCDC/JP2. The suspension was equilibrated at 37° C. for 2 hrs and filtered. The concentration in the solutions was determined by HPLC under the following conditions.
• Detector: UV 254 nm • Column: CAPCELLPAK C18 MG 75×4.6 mm • Mobile Phase A: 0.05 mol/L ammonium formate buffer (pH 3)/MeCN=9:1 • Mobile Phase B: 0.05 mol/L ammonium formate buffer (pH 3)/MeCN=1:9 • Gradient Program: 0→10 min 0→100% B) • 10→15 min 100% B) • 15.1→20 min 0% B) • Column Temp.: 40° C. • Flow Rate: 1 mL/min • Injection vol.: 10 gL

[5] = Heat stability of Form A crystal; format: physicochemical; conditions: in words
[6] = pH 5.5, GIT mode lipid membrane, 3 hrs, 25° C., read-out: PAMPA pH 5.5
[7] = pH 6.2, GIT mode lipid membrane, 3 hrs, 25° C., read-out: PAMPA PH 6.2
[8] = pH 1.2, simulated gastric fluid, JP1, read-out: Solubility JP1
[9] = pH 6.8, fassgf or other biorelevant, 20 mmol/L GCDC/JP2, read-out: Solubility GCDC/JP2
[10] = pH 6.8, fassgf or other biorelevant, JP2, read-out: Solubility JP2
[11] = pH 7.4, GIT mode lipid membrane, 3 hrs, 25° C., read-out: PAMPA PH 7.4

| Papp at 3 h, 50 gmol/L [3, 6] [×10⁻⁶ cm/s] | Papp at 3 h, 50 gmol/L [3, 7] [×10⁻⁶ cm/s] | permeability in comparison with compound X [3] | PAMPA PH 7.4 ([3]; pH 7.4, GIT mode lipid membrane, 3 hrs, 25° C.) [×10⁻⁶ cm/s] | solubility in comparison with compound X [4] | solubility at 2 h [4, 8] [µg/mL] | solubility at 2 h [4, 9] [µg/mL] | solubility at 2 h [4, 10] [µg/mL] | Papp at 3 h, 50 gmol/L [3, 11] [×10⁻⁶ cm/s] | stability to heat [5] | Structure (SMILES) | suppression rate at 24 hrs after administration ([1]; 0.12 mg/kg) [%] | M value ([2]; 0.12 mg/kg) | M value ([2]; 0.37 mg/kg) | M value ([2]; 1.23 mg/kg) | suppression rate at 24 hrs after administration ([1]; 0.10 mg/kg) [%] |
| --- | --- | --- | --- | --- | --- | --- | --- | --- | --- | --- | --- | --- | --- | --- | --- |
|  |  |  |  |  |  |  |  |  |  | Cc1oc(=O)oc1COC(=O)c1cccc2nc(C3CC3)n(Cc3ccc(-c4ccccc4-c4noc(=O)[nH]4)cc3)c12 [Compound (I), (5-Methyl-2-oxo-1,3-dioxol-4-yl)methyl 2-cyclopropyl-1-{[2′-(5-oxo-4,5-dihydro-1,2,4-oxadiazol-3-yl)biphenyl-4-yl]methyl}-1H-benzimidazole-7-carboxylate] | 20.2 | 8.2 | 9.0 | 9.8 |  |
| 13 | 0.63 | less permeable | 0 | soluble | 130 (≈ 287 µM) | 680 (≈ 1500 µM) | 470 (≈ 1040 µM) |  |  | O=C(O)c1cccc2nc(C3CC3)n(Cc3ccc(-c4ccccc4-c4noc(=O)[nH]4)cc3)c12 [Compound A, 2-cyclopropyl-1-{[2′-(5-oxo-4,5-dihydro-1,2,4-oxadiazol-3-yl)biphenyl-4-yl]methyl}-1H-benzimidazole-7-carboxylic acid] |  |  |  |  | −6.0 |
| 46 | 20 | permeable |  | less soluble | 160 (≈ 343 µM) | 27 (≈ 57.9 µM) | 2.8 (≈ 6 µM) | 8.9 |  | COC(=O)c1cccc2nc(C3CC3)n(Cc3ccc(-c4ccccc4-c4noc(=O)[nH]4)cc3)c12 [Compound B, methyl 2-cyclopropyl-1-{[2′-(5-oxo-4,5-dihydro-1,2,4-oxadiazol-3-yl)biphenyl-4-yl]methyl}-1H-benzimidazole-7-carboxylate] |  |  |  |  | 2.6 |
| 21 | 19 |  |  |  | 27 (≈ 47.8 µM) | 52 (≈ 92.1 µM) | 8.3 (≈ 14.7 µM) | 9.5 | stable to heat | Cc1oc(=O)oc1COC(=O)c1cccc2nc(C3CC3)n(Cc3ccc(-c4ccccc4-c4noc(=O)[nH]4)cc3)c12 [Compound X, crystal of (5-methyl-2-oxo-1,3-dioxol-4-yl)methyl 2-cyclopropyl-1-{[2′-(5-oxo-4,5-dihydro-1,2,4-oxadiazol-3-yl)biphenyl-4-yl]methyl}-1H-benzimidazole-7-carboxylate] |  |  |  |  |  |
